This passage reports IC50 results from PubChem BioAssay AID1159560 (GlaxoSmithKline (GSK), 2015).

Structures are written as SMILES. pIC50: −log10 of the molar value. Calls of active or inactive are those of the source. The rule behind the calls is not given here.

The IC50 is the concentration at which inhibition is half-maximal. The pIC50 is −log10 of the IC50, conventionally taken in molar units.

For this experiment, the system named is Leishmania donovani growth inhibition. Description: antileishmanial activity against L. donovani parasites (AID 1159560).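 Note: parasites exposed to compound for 72 h before the viability read.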
As for `Cc1cccc(NS(=O)(=O)c2ccc3c(c2)C(=O)c2cc(S(=O)(=O)Nc4cccc(C)c4C)ccc2-3)c1C`, the IC50 is > 50 µM (inactive).

Turning to `O=C(NC1C(=O)N(c2ccccc2)C1c1cccnc1)c1ccc(Cl)s1` (stereo not drawn), the negative-log IC50 (pIC50) is 6.00.

Regarding `COc1ccccc1-n1c(SCC(=O)Nc2ccc3c(c2)OCO3)nc2c(c1=O)SCC2`, the pIC50 is 5.00.

For the compound `O=C(Nc1nc(-c2ccc(S(=O)(=O)N3CCOCC3)cc2)cs1)c1ccc([N+](=O)[O-])cc1`, the IC50 is > 50 µM (inactive). Consider `COc1ccc(Nc2nc(NC3CCC(O)CC3)ncc2Br)c(C(N)=O)c1` (stereo not drawn), for which the pIC50 was 5.49. Take `COCc1cc(Nc2ccc(Cl)cc2)nc(-c2ccccn2)n1`: the pIC50 was 5.60. Turning to `O=C(Nc1ccc(Br)cn1)c1ccc(Cn2cnc([N+](=O)[O-])n2)cc1`, the IC50 was > 50 µM (inactive).

Consider `COc1ccc(C(C)(C)C)cc1S(=O)(=O)n1ccnc1`, for which the pIC50 is 4.40. For `Cc1[nH]c2ccccc2c(=O)c1Cc1c(C)[nH]c2ccccc2c1=O`, the negative-log IC50 (pIC50) is 4.70.

With `COc1cc(-c2nc(N3CCOCC3)sc2-c2ccnc(NC3CCOCC3)n2)ccc1Cl`, the IC50 is > 50 µM (inactive). `Cc1[nH]nc(-c2nc3ccccc3[nH]2)c1C(=O)NC1CCCNC1` (stereo not drawn): the pIC50 was 5.00. Same read-out and setting: the value for `O=C(c1cccc(Nc2ncc(-c3ccc4c(c3)OCO4)cn2)c1)N1CCOCC1` was 5.70. Consider `CC(Cn1ccnc1)NC(=O)COc1ccc(Cl)c(Cl)c1` (stereo not drawn), for which the IC50 is > 50 µM (inactive).

`O=C(Nc1nc(-c2ccccn2)cs1)c1ccccc1-n1cnnn1`: the pIC50 is 5.49. As to `COc1ccc(C(=O)[C@H]2C[C@@H]2CN(Cc2ccccn2)Cc2ccccn2)cc1`, the pIC50 was 5.10. `Cc1ccc(Nc2nc(N)nc(CNC(c3nc4ccccc4[nH]3)C(C)C)n2)cc1` (stereo not drawn): the pIC50 is 5.40. For `CCOc1ccc(NC(=O)C=Cc2ccc(CC)o2)cc1`, the pIC50 is 4.70. For the compound `CCCCCNC(=O)c1c[nH]c2ccc(S(=O)(=O)N(C)c3ccc(OCC)cc3)cc2c1=O`, the IC50 is > 50 µM (inactive).

For `C=CC[C@@H]1CC=C[C@@H](C)N1C(=O)CCc1nnc(-c2ccc3c(c2)OCO3)o1`, the pIC50 is 5.20. Regarding `COC(=O)c1ccc(-c2cnc3ccc(NCc4ccccn4)nn23)cc1`, the pIC50 was 4.89.

With `O=C1NCc2cccc(Nc3nc(NC4CCC(O)CC4)ncc3Br)c21` (stereo not drawn), the pIC50 is 6.10. Regarding `CC1(C)CCC(=Cc2ccc(Cl)cc2)CC1(O)Cn1ccnc1` (stereo not drawn), the pIC50 was 5.60. `CS(=O)(=O)c1cccc(-c2cnc(N)c3c(-c4ccc(CO)cc4)csc23)c1`: the pIC50 is 4.40.

As for `Cc1cc(Nc2cc(C3CC3)[nH]n2)nc(N2CCCC2)n1`, the pIC50 was 6.10. On the same count and under the same terms, the value for `COc1ccc(C(C)N(C)c2ncc3c(N)nc(N)nc3n2)cc1F` (stereo not drawn) was 5.40. With `O=S(=O)(c1cccc(CSc2nnc(-c3ccc4c(c3)OCO4)o2)c1)N1CCOCC1`, the pIC50 was 6.30.

For `COc1cccc2sc(CN(C)C(=O)C3CNCCN3c3ccc(F)cc3)c(C)c12` (stereo not drawn), the pIC50 was 4.49. For the compound `COCCn1c(-c2ccc3c(c2)OCO3)cnc1NCc1ccccc1OC`, the pIC50 is 4.89. Consider `O=C(Nc1nc2cc(Cl)ccc2o1)c1cccc(Cl)c1`, for which the pIC50 is 6.40. As to `CCCNC(=O)Nc1cccc(-c2nc3ncccc3o2)c1`, the pIC50 was 5.49.

For `O=C(CN1CCN(c2ccccn2)CC1)Nc1cc(S(=O)(=O)N2CCCCCC2)ccc1Cl`, the pIC50 was 5.10. With `FC(F)(F)c1cc(C2CCCN(Cc3c[nH]c4ccccc34)C2)nc2ncnn12` (stereo not drawn), the IC50 is > 50 µM (inactive). Take `CCOc1ccc(NC(=O)c2ccc(NC(=O)NC3CCCCC3)cc2)cc1`: the IC50 is > 50 µM (inactive).

Turning to `CS(=O)(=O)NC1CCC(Nc2ncc(Br)c(Nc3ccccc3C(N)=O)n2)CC1` (stereo not drawn), the pIC50 was 6.00. Turning to `NCc1ccc2c(Cl)cc(Cl)c(O)c2n1`, the pIC50 was 5.20. With `NCc1csc(Nc2cc(Oc3ccccc3)ncn2)n1`, the IC50 is > 50 µM (inactive). Turning to `O=C(NCCc1csc(-c2cccc(F)c2)n1)c1ccco1`, the IC50 was > 50 µM (inactive). Regarding `O=C(Cc1ccccc1)Nc1[nH]nc2sc(C(=O)NC3CCCC3)cc12`, the pIC50 is 5.40.

Take `COc1ccc2nccc(NC(=O)C3(OC)CCN(CC(O)c4ccc5c(c4)OCCO5)CC3)c2n1` (stereo not drawn): the pIC50 is 5.00. For `O=C(c1ccc(O)c(Cl)c1)N1CCN(c2cnccn2)CC1`, the pIC50 was 6.49. Same read-out and setting: the value for `Cn1cncc1CN1CCC2(CC1)COC(Cc1ccccc1)C2` (stereo not drawn) was 4.89. Turning to `COc1ccc2ncc(=O)n(CCN3CC[C@H](NCc4ncc(Cl)c5[nH]ncc45)[C@H](O)C3)c2n1`, the IC50 is > 50 µM (inactive). Regarding `COc1cc(Cl)c(C)cc1NC(=O)c1ccc([N+](=O)[O-])s1`, the pIC50 was 5.10. With `O=C1OCc2ccc(Nc3nccc(-c4cnn5ncccc45)n3)cc21`, the pIC50 is 7.20. As to `CC(=O)Nc1cccc(Nc2ncnc3nc[nH]c23)c1`, the IC50 is > 50 µM (inactive).

With `O=C(Nc1ccc(-c2nc3ccccc3c(=O)[nH]2)cc1)c1cccs1`, the IC50 is > 50 µM (inactive).

As for `COc1ccccc1C(=O)Nc1nnc(-c2ccc3c(c2)OCO3)s1`, the pIC50 is 6.00. With `O=C(CSc1nnc2ccc(-c3ccc(F)cc3)nn12)N1CCCCC1`, the IC50 is > 50 µM (inactive). For the compound `CCOC(=O)c1noc(N)c1-c1ccccc1`, the IC50 was > 50 µM (inactive).

On to `CCCCc1cc(Nc2cc(C3CCC3)[nH]n2)nc(N2CCC2C(N)=O)n1` (stereo not drawn), for which the pIC50 is 5.40. As to `COc1ccc(C(=O)Nc2c(C)nn(COc3cccc(C(F)(F)F)c3)c2C)cc1`, the IC50 was > 50 µM (inactive). Consider `CN(CCOc1ccc(Cl)cc1)Cc1nc(N)nc(N(C)C)n1`, for which the pIC50 was 4.80. For the compound `c1cc(-c2ncc(-c3ccn[nH]3)s2)ccn1`, the IC50 is > 50 µM (inactive). As for `COc1ccc(NS(=O)(=O)c2cccc(NC(=O)c3cc(F)cc(F)c3)c2)cc1`, the pIC50 is 5.49.

As to `O=[N+]([O-])c1cccc(Nc2cncc(-c3ccccc3CO)c2)c1`, the pIC50 is 4.40. Consider `O=C(CN(Cc1ccccn1)Cc1ccccn1)NC1Cc2ccccc2C1`, for which the pIC50 is 4.89. In the case of `COc1ccc2ncc(Cl)c(CCN3CC[C@@H](NCc4cc5c(cn4)OCS5)[C@H](O)C3)c2n1`, the pIC50 was 5.00.

Take `O=C(c1cc2cc(Cl)ccc2[nH]1)N1CCCCC1c1cccnc1` (stereo not drawn): the pIC50 was 4.30. Same read-out and setting: in the case of `COc1ccc2nc(N(Cc3cccnc3)C(=O)C3CCC3)sc2c1` it was 4.89.

For the compound `O=C(Nc1ccccc1C(=O)Nc1ccccn1)c1ccco1`, the IC50 was > 50 µM (inactive). In the case of `CCn1c(NC(=O)Cc2ccc(F)cc2)nc2ccccc21`, the pIC50 was 5.00.

In the case of `O=C(Nc1ccc(Br)c(Cl)c1)Nc1ccc2c(c1)OCO2`, the IC50 is > 50 µM (inactive). `O=C(NCC1CCCCC1)c1cnns1`: the pIC50 was 4.89. For the compound `N#Cc1cccc(Cc2cc(Nc3cc(C4CC4)[nH]n3)nc(N3CC[C@H]3C(N)=O)n2)c1`, the pIC50 is 6.20. Regarding `COc1cnc2ccc(=O)n(CCN3CCC(NC(=O)c4ccc(Cl)cc4)CC3)c2c1`, the pIC50 was 5.70. `CN(C)S(=O)(=O)c1cccc(C(=O)Nc2nc(-c3ccccn3)cs2)c1`: the pIC50 was 5.89. On the same count and under the same terms, the value for `CC(C)c1nn(-c2nc(N)nc(-c3ccccn3)n2)c(N)c1C1CCCCC1` was 5.10. On to `COc1ccc(-c2cnc(C)o2)cc1S(=O)(=O)Nc1ccc(C)cc1C`, for which the pIC50 was 5.40.
